The values that follow come from patent US20250249001A1, “METHODS OF TREATING SUBSTANCE USE DISORDER WITH 4-(3-CYANOPHENYL)-6-PYRIDINYLPYRIMIDINE MGLU5 NEGATIVE ALLOSTERIC MODULATORS” (Tempero Bio, Inc., priority 2022, published 2025).

The test system of data set [1] is voluntary home-cage alcohol drinking by Wistar rats. Description: Home-cage two-bottle choice alcohol drinking, acute treatment. In kind it is in vivo. As to the method: Animals: Male Wistar rats (Charles River Laboratories, INC) were used in these studies. Rat housing and testing was conducted at the University of North Carolina at Chapel Hill (UNC-CH) School of Medicine in a state-of-the-art rodent vivarium approved by the Association for Assessment and Accreditation of Laboratory Animal Care International (AAALAC). Rat health was monitored daily by study investigators and veterinarians in the Division of Comparative Medicine UNC. All experimental procedures were carried out in accordance with the NIH Guide to Care and Use of Laboratory Animals (Committee for the Update of the Guide for the Care and Use of Laboratory Animals, 2011) and institutional guidelines.
Rats were housed individually in standard Plexiglas cages with standard rodent food and water available ad libitum. Upon arrival from the vendor, rats were given 7 days to acclimate to the vivarium during which they were weighed and handled by an investigator each day to monitor general health and habituate them to human contact. Rats were then weighed each day within 1-h of experimental procedures to calculate drug dosages relative to body weight. […] The colony was maintained at […] on a 12-hour light/dark cycle, with the lights on from 10 AM-10 PM. All behavioral experiments were conducted during the light portion of the light cycle.
Home-cage alcohol drinking method. Oral alcohol and water intake were examined using a two-bottle choice protocol, which is standard in the field and commonly used in our laboratory. Male Wistar rats (n=12) were first adapted to drinking from a 50 ml conical tube fitted with a standard stainless-steel ball bearing sipper tube that limits spillage. Then, two bottles were place on the cage daily. One bottle contained an alcohol solution and the other contained water. Bottles containing fresh solutions were weighed daily before and after a 24 hr access period. After drug treatment, bottles were weighed after 1 hr and 24 hrs of access. Each week, rats had 4-5 days of sweetened alcohol and water available and the remaining days only water.
Briefly, rats were first exposed to alcohol (10% v/v)+sucrose (5% w/v). versus water in the two bottles. Then, over a period of 6-weeks, the concentrations of alcohol and sucrose were gradually adjusted to alcohol (8% v/v)+sucrose (2% w/v) to achieve intake of pharmacologically relevant doses of alcohol. Rats were maintained at this concentration for the duration of the experiment for both acute (3.1.a) and chronic (3.1.b) home-cage drinking studies. Use of sweetened alcohol solutions in preclinical research provides face validity to the binge-intoxication stage of alcohol addiction in humans where sweeteners are commonly added to alcohol.
Compound 1 treatment. After establishing baseline intake of sweetened alcohol and water, rats were habituated to i.p. injections. All rats (N=12) were administered 3 habituation injections of vehicle (10% w/v kolliphor in BCD (10%)) prior to the Compound 1 dose response curve and alcohol intake was measured. Then, the Compound 1 dose response curve was conducted with dose order randomized according to a modified Latin-Square design. Rats were given a minimum of 1-2 days between injections to ensure normal drinking was re-established in absence of drug administration. Each dose of Compound 1 (0-10 mg/kg) was administered via i.p. injection and rats were placed back in the home-cage for 1 hr prior to the return of sweetened alcohol and water. Alcohol intake was measured after 1-h and 24-hrs of access in grams by weighing the drinking bottles. Data were excluded from 1 rat that emptied both bottles fully each day without drinking the solutions; thus, results are presented for a final group of N=11 rats.
Efficacy comparisons to MPEP and Naltrexone. […]

In a further data set the test system is mGluR5. Particulars: cited from earlier work.
The subject of data set [2] is operant alcohol self-administration in Wistar rats. Description: Operant alcohol self-administration, repeated oral pellet treatment (A-B-A). In kind it is in vivo. Particulars: 10 mg/kg oral in palatable food pellet, 2-hr before daily sessions, 7 days (Days 6-12). As to the method: Repeated treatment with Compound 1. To evaluate effects of repeated treatment with Compound 1 on operant alcohol self-administration, a separate group of rats (n=12) was trained to self-administer alcohol as described above. After operant behavior reached a stable baseline, habituation to i.p. injections were conducted as described above. […] Another group of rats (n=12) was then trained to self-administer alcohol and a new injection protocol (e.g., 2-hr pretreatment time) was initiated. […] In a final attempt to evaluate repeated treatment, we re-established baseline behavior in the same rats and administered Compound 1 (0 and 10 mg/kg) orally in a palatable food pellet as previously reported. Doses were administered according to an A-B-A (vehicle-Compound 1-vehicle) experimental design with 5 consecutive days of exposure to each vehicle treatment and 7 days of exposure to Compound 1. There was no observable stress response using this method of exposure. Operant self-administration (number of alcohol reinforced lever presses) was recorded during daily 15-min test sessions (n=12 rats).
In a final attempt to salvage the study, injections were halted in the second group of rats and EtOH self-administration behavior was allowed to stabilize over a 1-week period. […]

As for `N#Cc1cc(Cl)cc(-c2cc(-c3ccc(F)cn3)ncn2)c1` [Compound 1, 3-chloro-5-[6-(5-fluoropyridin-2-yl)pyrimidin-4-yl]benzonitrile], the “alcohol intake after 24-hrs of access vs vehicle” value in data set [1] (10 mg/kg i.p. acute) is “did not achieve statistical significance”; in data set [1] (Compound 1 1 and 3 mg/kg i.p. acute), “significantly decreased alcohol intake”. The “dosage giving the greatest reduction in EtOH intake” value in data set [1] (1-hr access, dose range 0-10 mg/kg i.p.) is recorded as 3 mg/kg. In addition, the “alcohol intake (EtOH g/kg/1-h) after 1-hr access vs vehicle control” value in data set [1] (Compound 1 1, 3, and 10 mg/kg i.p. acute, 1 hr before access, sweetened alcohol, N=11) is “significantly decreased alcohol intake”. Also, the “alcohol intake at the 24-hr measurement interval, comparison of equivalent doses” value in data set [1] (each drug 3 mg/kg i.p. acute) was “maintained efficacy”. Besides, the “alcohol drinking at 1-hr of access vs vehicle control, positive control comparison” value in data set [1] (each drug 3 mg/kg i.p. acute, N=11) was “significantly decreased alcohol drinking”. Besides, the “affinity for mGluR5” value with mGluR5 (following systemic administration in rats, mice, and primates) is listed as “high affinity”. Besides, the brain penetration result in the data set on mGluR5 (systemic administration) is “brain penetrant”. For the same compound, in data set [2], the “EtOH reinforced lever press responses, repeated treatment” value is listed as “failed to alter operant alcohol self-administration”.
